The values that follow come from ChEMBL document CHEMBL1139236, “Introduction of non-natural amino acid residues into the substrate-specific P1 position of trypsin inhibitor SFTI-1 yields potent chymotrypsin and cathepsin G inhibitors” (Bioorg Med Chem, 2009).

pKi: −log10 of the molar value. Bridge positions count the residues as written; N and C are the ends. Square brackets hold non-standard residues; d marks the D form. Peptide text beside a SMILES is read from it. Phe(4-NO2) = N[C@@H](Cc1ccc([N+](=O)[O-])cc1)C(=O)O; Phe(4-guanidino) = N=C(N)Nc1ccc(C[C@H](N)C(=O)O)cc1; Phe(4-NH2) = Nc1ccc(C[C@H](N)C(=O)O)cc1; Phe(4-F) = N[C@@H](Cc1ccc(F)cc1)C(=O)O; Phe(4-Me) = Cc1ccc(C[C@H](N)C(=O)O)cc1; 4Pal = N[C@@H](Cc1ccncc1)C(=O)O

The target of data set [1] is Chymotrypsinogen A (Bos taurus) (UniProt P00766). In words: Inhibition of bovine alpha-chymotrypsin assessed as association equilibrium constant.
Data set [2] has as its target T1, Cathepsin G (Homo sapiens) (UniProt P08311).
T1 sequence (whole entry): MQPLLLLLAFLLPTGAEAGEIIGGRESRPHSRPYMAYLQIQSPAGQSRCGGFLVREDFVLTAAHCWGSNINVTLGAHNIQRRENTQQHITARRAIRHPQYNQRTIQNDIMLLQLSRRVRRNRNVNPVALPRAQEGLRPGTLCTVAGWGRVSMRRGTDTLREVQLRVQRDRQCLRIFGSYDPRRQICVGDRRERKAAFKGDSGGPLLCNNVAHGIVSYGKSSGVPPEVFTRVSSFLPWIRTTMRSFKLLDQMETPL
In words: Inhibition of cathepsin G assessed as association equilibrium constant.

Data set [3] deals with T1, Cathepsin G (Homo sapiens). In words: Inhibition of cathepsin G assessed as association equilibrium constant relative to [Phe5]SFTI-1.
Data set [4] has as its target T2, Cathepsin G (Homo sapiens, UniProt P08311).
T2 sequence (P08311 whole entry): T1 sequence (whole entry)
Put plainly: Inhibition of cathepsin G.

The target in data set [5] is Chymotrypsinogen A (Bos taurus) (UniProt P00766). Put plainly: Inhibition of bovine alpha-chymotrypsin assessed as association equilibrium constant relative to [Phe5]SFTI-1.
Data set [6] relates to Serum. In words: Stability in human serum at 2 mg/mL up to 24 hrs. It counts as ADME, cell-free.

Consider `CC[C@H](C)[C@@H]1NC(=O)[C@@H]2CCCN2C(=O)[C@@H]2CCCN2C(=O)[C@H]([C@@H](C)CC)NC(=O)[C@H](CO)NC(=O)[C@H](CCCCN)NC(=O)[C@H]([C@@H](C)O)NC(=O)[C@@H]2CSSC[C@H](NC1=O)C(=O)N[C@@H](Cc1ccccc1)C(=O)N1CCC[C@H]1C(=O)N[C@@H](CC(=O)O)C(=O)NCC(=O)N[C@@H](CCCNC(=N)N)C(=O)N2`, for which the Ka in data set [1] is 5.2 ×10⁶ /M; in data set [2] it was 5.7 ×10⁶ /M. Moreover, the Ratio in data set [3] turned out to be 1.54. The compound also had a negative-log Ki (pKi) in data set [4] of 9.82.

For the compound `CC[C@H](C)[C@@H]1NC(=O)[C@@H]2CCCN2C(=O)[C@@H]2CCCN2C(=O)[C@H]([C@@H](C)CC)NC(=O)[C@H](CO)NC(=O)[C@H](CCCCN)NC(=O)[C@H]([C@@H](C)O)NC(=O)[C@@H](NC(=O)[C@H](CCCNC(=N)N)NC(=O)CN)CSSC[C@@H](C(=O)N[C@@H](Cc2ccccc2)C(=O)N2CCC[C@H]2C(=O)N[C@@H](CC(=O)O)C(=O)O)NC1=O`, in data set [1], the Ka stood at 5 ×10⁶ /M.

Turning to `CC[C@H](C)[C@@H]1NC(=O)[C@@H]2CCCN2C(=O)[C@@H]2CCCN2C(=O)[C@H]([C@@H](C)CC)NC(=O)[C@H](CO)NC(=O)[C@H](Cc2ccccc2)NC(=O)[C@H]([C@@H](C)O)NC(=O)[C@@H](NC(=O)[C@H](CCCNC(=N)N)NC(=O)CN)CSSC[C@@H](C(=O)N[C@@H](Cc2ccccc2)C(=O)N2CCC[C@H]2C(=O)N[C@@H](CC(=O)O)C(=O)O)NC1=O` (H-GRCTFSIPPICFPD-OH; disulfide 3-11), the Ka in data set [1] was found to be 2 ×10⁹ /M; in data set [2], 3.7 ×10⁶ /M.

As to `CC[C@H](C)[C@@H]1NC(=O)[C@@H]2CCCN2C(=O)[C@@H]2CCCN2C(=O)[C@H]([C@@H](C)CC)NC(=O)[C@H](CO)NC(=O)[C@H](Cc2ccc(O)cc2)NC(=O)[C@H]([C@@H](C)O)NC(=O)[C@@H](NC(=O)[C@H](CCCNC(=N)N)NC(=O)CN)CSSC[C@@H](C(=O)N[C@@H](Cc2ccccc2)C(=O)N2CCC[C@H]2C(=O)N[C@@H](CC(=O)O)C(=O)O)NC1=O` (H-GRCTYSIPPICFPD-OH; disulfide 3-11), in data set [5], the Ratio worked out at 9.5. For the same compound, the Ka in data set [1] was 1.9 ×10¹⁰ /M; in data set [2], < 1 ×10⁵ /M.

As for `CC[C@H](C)[C@@H]1NC(=O)[C@@H]2CCCN2C(=O)[C@@H]2CCCN2C(=O)[C@H]([C@@H](C)CC)NC(=O)[C@H](CO)NC(=O)[C@H](Cc2ccncc2)NC(=O)[C@H]([C@@H](C)O)NC(=O)[C@@H](NC(=O)[C@H](CCCNC(=N)N)NC(=O)CN)CSSC[C@@H](C(=O)N[C@@H](Cc2ccccc2)C(=O)N2CCC[C@H]2C(=O)N[C@@H](CC(=O)O)C(=O)O)NC1=O` (H-GRCT[4Pal]SIPPICFPD-OH; disulfide 3-11), the Ratio in data set [5] is 5.5. Besides, the values for the Ka in data set [1] and in data set [2] were 1.1 ×10¹⁰ /M and < 1 ×10⁵ /M, respectively.

As to `CC[C@H](C)[C@@H]1NC(=O)[C@@H]2CCCN2C(=O)[C@@H]2CCCN2C(=O)[C@H]([C@@H](C)CC)NC(=O)[C@H](CO)NC(=O)[C@H](Cc2ccc(F)cc2)NC(=O)[C@H]([C@@H](C)O)NC(=O)[C@@H](NC(=O)[C@H](CCCNC(=N)N)NC(=O)CN)CSSC[C@@H](C(=O)N[C@@H](Cc2ccccc2)C(=O)N2CCC[C@H]2C(=O)N[C@@H](CC(=O)O)C(=O)O)NC1=O` (H-GRCT[Phe(4-F)]SIPPICFPD-OH; disulfide 3-11), the Ratio in data set [5] amounted to 15; in data set [3] it was 1.02. The Ka in data set [1] amounted to 3 ×10¹⁰ /M; in data set [2], 3.8 ×10⁶ /M.

As to `CC[C@H](C)[C@@H]1NC(=O)[C@@H]2CCCN2C(=O)[C@@H]2CCCN2C(=O)[C@H]([C@@H](C)CC)NC(=O)[C@H](CO)NC(=O)[C@H](Cc2ccc(C)cc2)NC(=O)[C@H]([C@@H](C)O)NC(=O)[C@@H](NC(=O)[C@H](CCCNC(=N)N)NC(=O)CN)CSSC[C@@H](C(=O)N[C@@H](Cc2ccccc2)C(=O)N2CCC[C@H]2C(=O)N[C@@H](CC(=O)O)C(=O)O)NC1=O` (H-GRCT[Phe(4-Me)]SIPPICFPD-OH; disulfide 3-11), the values for the Ratio in data set [5] and in data set [3] were 12.5 and 0.76, respectively. In addition, the results for the Ka in data set [1] and in data set [2] were 2.5 ×10¹⁰ /M and 2.8 ×10⁶ /M, respectively.

Turning to `CC[C@H](C)[C@@H]1NC(=O)[C@@H]2CCCN2C(=O)[C@@H]2CCCN2C(=O)[C@H]([C@@H](C)CC)NC(=O)[C@H](CO)NC(=O)[C@H](Cc2ccc(N)cc2)NC(=O)[C@H]([C@@H](C)O)NC(=O)[C@@H](NC(=O)[C@H](CCCNC(=N)N)NC(=O)CN)CSSC[C@@H](C(=O)N[C@@H](Cc2ccccc2)C(=O)N2CCC[C@H]2C(=O)N[C@@H](CC(=O)O)C(=O)O)NC1=O` (H-GRCT[Phe(4-NH2)]SIPPICFPD-OH; disulfide 3-11), the Ratio in data set [5] is 9.5; in data set [3], 0.97. Besides, the Ka in data set [1] was found to be 1.9 ×10¹⁰ /M; in data set [2], 3.6 ×10⁶ /M.

For the compound `CC[C@H](C)[C@@H]1NC(=O)[C@@H]2CCCN2C(=O)[C@@H]2CCCN2C(=O)[C@H]([C@@H](C)CC)NC(=O)[C@H](CO)NC(=O)[C@H](Cc2ccc([N+](=O)[O-])cc2)NC(=O)[C@H]([C@@H](C)O)NC(=O)[C@@H](NC(=O)[C@H](CCCNC(=N)N)NC(=O)CN)CSSC[C@@H](C(=O)N[C@@H](Cc2ccccc2)C(=O)N2CCC[C@H]2C(=O)N[C@@H](CC(=O)O)C(=O)O)NC1=O` (H-GRCT[Phe(4-NO2)]SIPPICFPD-OH; disulfide 3-11), the Ratio in data set [5] was 13. The figures for the Ka in data set [1] and in data set [2] were 2.6 ×10¹⁰ /M and < 1 ×10⁵ /M, respectively.

Take `CC[C@H](C)[C@@H]1NC(=O)[C@@H]2CCCN2C(=O)[C@@H]2CCCN2C(=O)[C@H]([C@@H](C)CC)NC(=O)[C@H](CO)NC(=O)[C@H](Cc2ccc(NC(=N)N)cc2)NC(=O)[C@H]([C@@H](C)O)NC(=O)[C@@H](NC(=O)[C@H](CCCNC(=N)N)NC(=O)CN)CSSC[C@@H](C(=O)N[C@@H](Cc2ccccc2)C(=O)N2CCC[C@H]2C(=O)N[C@@H](CC(=O)O)C(=O)O)NC1=O` (H-GRCT[Phe(4-guanidino)]SIPPICFPD-OH; disulfide 3-11): the Ratio in data set [5] worked out at 0.09; in data set [3], 2.19. For the same compound, the figures for the Ka in data set [1] and in data set [2] were 1.8 ×10⁸ /M and 8.1 ×10⁷ /M, respectively. The Stability entry in data set [6] was “Stable”.
